In ChEMBL document CHEMBL5465560, “Selectivity Literature for EUbOPEN Chemogenomic Library” (2024):

Columns and labels:
[1] = target: Bromodomain adjacent to zinc finger domain protein 2A (Homo sapiens, UniProt Q9UIF9)
[2] = target: T1, Serine/threonine-protein kinase 17B (Homo sapiens) (UniProt O94768); test: Selectivity interaction (KinomeScan (DiscoverX)) EUB0000229b STK17B; conditions: at 10 µM
T1 sequence (whole entry): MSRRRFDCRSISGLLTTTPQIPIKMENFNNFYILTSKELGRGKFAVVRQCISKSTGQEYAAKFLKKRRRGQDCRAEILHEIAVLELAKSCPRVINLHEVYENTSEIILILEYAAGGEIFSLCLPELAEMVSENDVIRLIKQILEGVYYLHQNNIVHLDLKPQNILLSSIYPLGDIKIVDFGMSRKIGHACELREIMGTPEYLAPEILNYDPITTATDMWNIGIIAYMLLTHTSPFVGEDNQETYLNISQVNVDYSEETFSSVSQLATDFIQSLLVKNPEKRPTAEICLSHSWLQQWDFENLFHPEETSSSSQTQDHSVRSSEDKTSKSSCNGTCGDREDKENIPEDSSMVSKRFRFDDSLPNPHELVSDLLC

[3] = target: Ribosomal protein S6 kinase alpha-6 (Homo sapiens, UniProt Q9UK32); test: Selectivity interaction (KinomeScan (DiscoverX)) EUB0000311b RPS6KA6; conditions: at 1 µM
[4] = target: SRSF protein kinase 3 (Homo sapiens) (UniProt Q9UPE1); test: Selectivity interaction (KinomeScan (DiscoverX)) EUB0000595a SRPK3; conditions: at 10 µM
Chain of SRSF protein kinase 3 (Homo sapiens) (Q9UPE1 whole entry, canonical isoform): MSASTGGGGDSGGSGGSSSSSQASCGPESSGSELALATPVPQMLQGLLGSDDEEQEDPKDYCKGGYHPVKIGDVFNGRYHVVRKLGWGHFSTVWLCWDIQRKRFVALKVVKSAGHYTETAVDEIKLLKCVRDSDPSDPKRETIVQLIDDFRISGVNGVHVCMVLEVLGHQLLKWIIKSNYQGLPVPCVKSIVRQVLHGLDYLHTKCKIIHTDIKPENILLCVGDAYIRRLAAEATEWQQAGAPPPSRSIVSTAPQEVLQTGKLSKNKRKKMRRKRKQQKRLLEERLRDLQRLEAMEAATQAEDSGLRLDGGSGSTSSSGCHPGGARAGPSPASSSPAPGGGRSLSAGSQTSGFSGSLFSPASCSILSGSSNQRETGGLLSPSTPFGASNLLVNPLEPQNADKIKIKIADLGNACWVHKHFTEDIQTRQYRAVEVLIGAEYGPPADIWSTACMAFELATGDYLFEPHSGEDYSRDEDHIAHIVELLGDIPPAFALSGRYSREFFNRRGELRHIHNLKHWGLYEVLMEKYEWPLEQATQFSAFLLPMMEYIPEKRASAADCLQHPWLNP

[5] = target: Casein kinase I isoform gamma-2 (Homo sapiens) (UniProt P78368); conditions: at 10 µM
[6] = target: Mitogen-activated protein kinase 14 (Homo sapiens, UniProt Q16539); test: Selectivity interaction (Kinase panel (DSF assay)) EUB0001559a MAPK14
[7] = target: Mitogen-activated protein kinase kinase kinase 8 (Homo sapiens, UniProt P41279); test: Selectivity interaction (Kinase panel (Z-LYTE Assay)) EUB0001632a MAP3K8; conditions: at 10 µM
[8] = target: Type-1 angiotensin II receptor (Homo sapiens) (UniProt P30556); test: Selectivity interaction (Eurofins CEREP Diversity Profile (receptors and ion channels)) EUB0000279b AGTR1; conditions: at 10 µM
Chain of Type-1 angiotensin II receptor (Homo sapiens) (P30556 whole entry): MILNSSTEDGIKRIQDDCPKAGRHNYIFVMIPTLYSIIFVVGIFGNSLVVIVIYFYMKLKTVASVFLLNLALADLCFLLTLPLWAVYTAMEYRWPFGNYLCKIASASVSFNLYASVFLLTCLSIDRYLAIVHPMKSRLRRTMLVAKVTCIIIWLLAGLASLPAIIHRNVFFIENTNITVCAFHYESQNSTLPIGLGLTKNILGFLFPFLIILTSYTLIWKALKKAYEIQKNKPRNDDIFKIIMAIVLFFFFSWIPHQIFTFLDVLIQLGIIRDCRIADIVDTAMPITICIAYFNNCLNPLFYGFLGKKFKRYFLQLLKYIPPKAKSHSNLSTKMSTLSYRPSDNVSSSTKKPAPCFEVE

[9] = target: T2, Ephrin type-B receptor 3 (Homo sapiens) (UniProt P54753); test: Selectivity interaction (KinomeScan (DiscoverX)) EUB0001049a EPHB3; conditions: at 1 µM
T2 sequence (whole entry): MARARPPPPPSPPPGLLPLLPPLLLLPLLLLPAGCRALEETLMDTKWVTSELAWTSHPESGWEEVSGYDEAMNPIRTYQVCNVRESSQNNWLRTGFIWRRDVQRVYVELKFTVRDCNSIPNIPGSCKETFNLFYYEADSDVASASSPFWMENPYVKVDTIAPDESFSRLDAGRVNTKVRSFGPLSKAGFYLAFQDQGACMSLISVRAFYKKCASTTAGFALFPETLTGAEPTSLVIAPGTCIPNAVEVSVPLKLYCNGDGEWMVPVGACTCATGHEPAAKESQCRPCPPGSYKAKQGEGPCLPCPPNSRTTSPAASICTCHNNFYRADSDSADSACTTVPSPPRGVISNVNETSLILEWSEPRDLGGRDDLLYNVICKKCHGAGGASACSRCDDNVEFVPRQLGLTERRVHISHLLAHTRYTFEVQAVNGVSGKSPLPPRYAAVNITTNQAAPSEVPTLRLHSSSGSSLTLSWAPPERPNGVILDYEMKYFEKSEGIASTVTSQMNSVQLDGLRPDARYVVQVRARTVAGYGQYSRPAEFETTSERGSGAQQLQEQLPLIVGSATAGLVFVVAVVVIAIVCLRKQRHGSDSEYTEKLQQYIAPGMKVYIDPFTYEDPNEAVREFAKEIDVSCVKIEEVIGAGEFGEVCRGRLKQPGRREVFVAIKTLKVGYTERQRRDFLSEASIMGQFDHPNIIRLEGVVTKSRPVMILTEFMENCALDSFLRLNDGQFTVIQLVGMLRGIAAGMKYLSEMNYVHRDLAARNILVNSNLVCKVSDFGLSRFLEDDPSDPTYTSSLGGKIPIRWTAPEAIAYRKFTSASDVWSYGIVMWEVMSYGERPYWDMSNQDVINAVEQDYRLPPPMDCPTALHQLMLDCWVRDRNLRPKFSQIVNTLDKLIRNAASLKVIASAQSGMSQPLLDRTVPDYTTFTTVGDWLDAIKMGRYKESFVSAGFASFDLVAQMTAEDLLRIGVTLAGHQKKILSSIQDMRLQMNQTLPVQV

[10] = target: Dual specificity mitogen-activated protein kinase kinase 1 (Homo sapiens, UniProt Q02750); test: Selectivity interaction (KinomeScan (DiscoverX)) EUB0001550a MAP2K1; conditions: at 1 µM
[11] = target: 5'-AMP-activated protein kinase catalytic subunit alpha-1 (Homo sapiens, UniProt Q13131); test: Selectivity interaction (Upstate Kinase Profiler service (Millipore)) EUB0000056c PRKAA1; conditions: at 1 µM
[12] = target: High affinity nerve growth factor receptor (Homo sapiens, UniProt P04629); test: Selectivity interaction (KinaseProfiler screening (Millipore)) EUB0000601a NTRK1; conditions: at 3 µM
[13] = target: Phosphatidylinositol 4-kinase alpha (Homo sapiens, UniProt P42356); test: Selectivity interaction (Kinase panel (literature)) EUB0001199aCl PI4KA; conditions: at 1 µM
[14] = target: Phosphatidylinositol 4,5-bisphosphate 3-kinase catalytic subunit alpha isoform (Homo sapiens) (UniProt P42336); test: (§1) Selectivity interaction (KinomeScan (DiscoverX)) EUB0000618a PIK3CA; conditions: at 10 µM
[15] = system: Phosphatidylinositol 4,5-bisphosphate 3-kinase catalytic subunit alpha isoform (Homo sapiens), P42336 [C420R]; test: as §1; conditions: at 10 µM
[16] = system: Phosphatidylinositol 4,5-bisphosphate 3-kinase catalytic subunit alpha isoform (Homo sapiens), P42336 [E542K]; test: as §1; conditions: at 10 µM
Chain of Phosphatidylinositol 4,5-bisphosphate 3-kinase catalytic subunit alpha isoform (Homo sapiens), P42336 [E542K] (P42336 whole entry E542K, canonical isoform): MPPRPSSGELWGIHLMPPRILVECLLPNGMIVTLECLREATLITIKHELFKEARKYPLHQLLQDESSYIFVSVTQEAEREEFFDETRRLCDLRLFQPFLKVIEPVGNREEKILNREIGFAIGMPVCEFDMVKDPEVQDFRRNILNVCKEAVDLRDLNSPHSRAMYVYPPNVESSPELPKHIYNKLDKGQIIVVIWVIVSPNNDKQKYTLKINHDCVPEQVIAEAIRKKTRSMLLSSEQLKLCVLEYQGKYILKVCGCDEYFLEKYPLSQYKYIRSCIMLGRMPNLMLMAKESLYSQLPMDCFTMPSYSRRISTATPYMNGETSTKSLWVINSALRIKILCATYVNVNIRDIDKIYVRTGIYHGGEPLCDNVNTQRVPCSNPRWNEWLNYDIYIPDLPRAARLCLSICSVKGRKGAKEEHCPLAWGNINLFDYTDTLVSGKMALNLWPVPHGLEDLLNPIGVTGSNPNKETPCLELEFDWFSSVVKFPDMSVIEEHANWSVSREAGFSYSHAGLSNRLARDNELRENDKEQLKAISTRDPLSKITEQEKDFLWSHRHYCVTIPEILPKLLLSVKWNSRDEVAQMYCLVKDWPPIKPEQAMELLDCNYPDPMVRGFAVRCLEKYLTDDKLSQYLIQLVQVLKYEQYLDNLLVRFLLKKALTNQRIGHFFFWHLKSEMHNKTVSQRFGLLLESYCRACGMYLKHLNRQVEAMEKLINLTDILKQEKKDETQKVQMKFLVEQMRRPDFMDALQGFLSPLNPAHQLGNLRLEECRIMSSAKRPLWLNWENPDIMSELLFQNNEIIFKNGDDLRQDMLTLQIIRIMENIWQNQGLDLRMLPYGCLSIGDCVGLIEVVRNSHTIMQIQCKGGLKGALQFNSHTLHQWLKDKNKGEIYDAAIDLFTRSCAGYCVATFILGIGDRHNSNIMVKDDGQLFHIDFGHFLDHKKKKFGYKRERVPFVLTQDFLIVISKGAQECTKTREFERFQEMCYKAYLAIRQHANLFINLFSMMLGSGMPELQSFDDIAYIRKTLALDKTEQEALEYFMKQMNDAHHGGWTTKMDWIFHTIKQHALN

[17] = system: Phosphatidylinositol 4,5-bisphosphate 3-kinase catalytic subunit alpha isoform (Homo sapiens), P42336 [E545A]; test: as §1; conditions: at 10 µM
[18] = system: Phosphatidylinositol 4,5-bisphosphate 3-kinase catalytic subunit alpha isoform (Homo sapiens), P42336 [E545K]; test: as §1; conditions: at 10 µM
[19] = system: Phosphatidylinositol 4,5-bisphosphate 3-kinase catalytic subunit alpha isoform (Homo sapiens), P42336 [H1047L]; test: as §1; conditions: at 10 µM
[20] = system: Phosphatidylinositol 4,5-bisphosphate 3-kinase catalytic subunit alpha isoform (Homo sapiens), P42336 [H1047Y]; test: as §1; conditions: at 10 µM
[21] = system: Phosphatidylinositol 4,5-bisphosphate 3-kinase catalytic subunit alpha isoform (Homo sapiens), P42336 [M1043I]; test: as §1; conditions: at 10 µM
[22] = system: Phosphatidylinositol 4,5-bisphosphate 3-kinase catalytic subunit alpha isoform (Homo sapiens), P42336 [Q546K]; test: as §1; conditions: at 10 µM
[23] = target: Protein-tyrosine kinase 2-beta (Homo sapiens) (UniProt Q14289); test: Selectivity interaction (ActivX KiNativ screen (kinase selectivity in THP-1 cell lysates)) EUB0000639a PTK2B; format: subcellular; conditions: lysate, at 0.2 µM
[24] = target: Receptor-type tyrosine-protein kinase FLT3 (Homo sapiens) (UniProt P36888); conditions: at 10 µM
Chain of Receptor-type tyrosine-protein kinase FLT3 (Homo sapiens) (P36888 whole entry): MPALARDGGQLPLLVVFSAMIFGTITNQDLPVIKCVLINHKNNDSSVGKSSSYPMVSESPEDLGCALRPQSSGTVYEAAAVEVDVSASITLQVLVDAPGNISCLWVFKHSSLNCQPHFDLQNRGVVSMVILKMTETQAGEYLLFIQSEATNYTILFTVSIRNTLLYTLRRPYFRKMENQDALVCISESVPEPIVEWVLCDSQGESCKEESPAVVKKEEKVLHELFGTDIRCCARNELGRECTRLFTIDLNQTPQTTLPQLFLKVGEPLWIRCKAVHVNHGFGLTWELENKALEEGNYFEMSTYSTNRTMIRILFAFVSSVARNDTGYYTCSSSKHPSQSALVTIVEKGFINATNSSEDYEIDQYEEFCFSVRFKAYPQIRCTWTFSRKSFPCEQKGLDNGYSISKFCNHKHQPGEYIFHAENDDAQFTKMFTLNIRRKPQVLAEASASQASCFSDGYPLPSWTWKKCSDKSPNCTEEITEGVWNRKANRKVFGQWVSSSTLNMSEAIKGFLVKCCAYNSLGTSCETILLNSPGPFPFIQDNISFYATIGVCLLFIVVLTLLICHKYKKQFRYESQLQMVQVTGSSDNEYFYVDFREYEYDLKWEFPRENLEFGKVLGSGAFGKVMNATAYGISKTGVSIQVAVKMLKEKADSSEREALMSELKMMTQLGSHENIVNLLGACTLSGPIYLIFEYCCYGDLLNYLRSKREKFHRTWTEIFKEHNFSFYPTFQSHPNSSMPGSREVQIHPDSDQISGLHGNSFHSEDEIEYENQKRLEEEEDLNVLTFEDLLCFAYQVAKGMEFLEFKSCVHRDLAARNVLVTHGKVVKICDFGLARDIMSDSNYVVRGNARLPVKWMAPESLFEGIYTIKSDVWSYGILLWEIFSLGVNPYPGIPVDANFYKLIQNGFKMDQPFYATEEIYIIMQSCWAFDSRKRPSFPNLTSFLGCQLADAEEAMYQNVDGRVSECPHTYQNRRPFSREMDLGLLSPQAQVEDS

Chain of Bromodomain adjacent to zinc finger domain protein 2A (Q9UIF9 whole entry, the tested form may be a part): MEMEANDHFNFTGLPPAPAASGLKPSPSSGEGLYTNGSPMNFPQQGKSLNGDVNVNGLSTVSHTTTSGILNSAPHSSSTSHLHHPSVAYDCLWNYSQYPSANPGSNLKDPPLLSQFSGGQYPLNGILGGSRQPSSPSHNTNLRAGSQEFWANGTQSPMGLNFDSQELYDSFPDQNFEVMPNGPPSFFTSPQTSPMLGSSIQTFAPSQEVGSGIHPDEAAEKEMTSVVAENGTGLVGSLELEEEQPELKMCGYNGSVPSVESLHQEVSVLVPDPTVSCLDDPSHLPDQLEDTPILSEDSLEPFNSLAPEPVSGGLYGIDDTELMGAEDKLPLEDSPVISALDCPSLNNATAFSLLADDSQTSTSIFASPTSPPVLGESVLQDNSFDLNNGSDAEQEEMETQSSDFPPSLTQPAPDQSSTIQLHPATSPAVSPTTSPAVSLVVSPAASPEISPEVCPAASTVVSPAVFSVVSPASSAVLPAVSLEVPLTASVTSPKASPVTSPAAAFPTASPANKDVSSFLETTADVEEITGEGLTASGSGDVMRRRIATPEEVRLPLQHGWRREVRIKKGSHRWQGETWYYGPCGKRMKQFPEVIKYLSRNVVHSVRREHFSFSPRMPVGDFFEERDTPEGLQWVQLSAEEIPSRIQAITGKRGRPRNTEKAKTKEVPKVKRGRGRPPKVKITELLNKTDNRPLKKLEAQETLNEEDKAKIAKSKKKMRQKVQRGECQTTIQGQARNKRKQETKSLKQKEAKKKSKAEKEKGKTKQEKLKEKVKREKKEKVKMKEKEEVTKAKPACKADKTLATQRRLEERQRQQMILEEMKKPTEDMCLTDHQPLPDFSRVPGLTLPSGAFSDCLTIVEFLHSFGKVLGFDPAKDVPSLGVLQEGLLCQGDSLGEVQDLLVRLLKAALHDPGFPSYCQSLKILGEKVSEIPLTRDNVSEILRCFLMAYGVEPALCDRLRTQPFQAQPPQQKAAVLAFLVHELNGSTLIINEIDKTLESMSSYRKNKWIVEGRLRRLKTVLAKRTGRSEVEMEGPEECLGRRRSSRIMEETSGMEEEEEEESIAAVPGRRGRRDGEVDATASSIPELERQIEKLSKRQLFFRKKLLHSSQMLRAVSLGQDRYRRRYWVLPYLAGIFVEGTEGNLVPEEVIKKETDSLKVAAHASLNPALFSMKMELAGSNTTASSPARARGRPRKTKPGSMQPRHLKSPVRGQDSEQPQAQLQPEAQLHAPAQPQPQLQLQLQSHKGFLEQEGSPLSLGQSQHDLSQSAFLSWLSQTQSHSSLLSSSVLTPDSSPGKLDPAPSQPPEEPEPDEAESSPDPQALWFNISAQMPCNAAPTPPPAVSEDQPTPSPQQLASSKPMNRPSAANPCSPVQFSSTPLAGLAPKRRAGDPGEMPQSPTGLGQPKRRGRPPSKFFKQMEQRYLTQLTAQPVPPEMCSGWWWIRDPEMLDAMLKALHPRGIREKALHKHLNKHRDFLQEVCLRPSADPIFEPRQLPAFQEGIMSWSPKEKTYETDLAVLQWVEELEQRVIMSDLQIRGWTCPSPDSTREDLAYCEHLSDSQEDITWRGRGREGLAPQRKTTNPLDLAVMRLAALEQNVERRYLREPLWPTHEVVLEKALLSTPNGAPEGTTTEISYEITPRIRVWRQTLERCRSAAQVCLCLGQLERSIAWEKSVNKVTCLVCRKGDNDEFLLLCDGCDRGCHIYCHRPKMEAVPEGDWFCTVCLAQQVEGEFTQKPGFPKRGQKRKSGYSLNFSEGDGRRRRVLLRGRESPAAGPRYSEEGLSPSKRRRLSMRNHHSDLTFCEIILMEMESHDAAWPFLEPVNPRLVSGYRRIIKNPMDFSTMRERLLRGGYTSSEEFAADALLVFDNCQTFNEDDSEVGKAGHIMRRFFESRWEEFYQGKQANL

CN(C)CCCOc1ccc(-c2cc(NCCCn3cccn3)nc(S(C)(=O)=O)n2)cc1
dTM [1]: < 2 K

COc1cc(N(C)c2ccnc3ccc(C(F)(F)F)cc23)cc(OC)c1OC
% binding [2]: 100%

CCc1ccccc1C(=O)Nc1n[nH]c2c(C)c(F)c(C3C(C#N)=C(C)N(C)C(C)=C3C#N)cc12 [BAY-3827]
% of control [3]: 2.9%

COCC(=O)NC/C=C/c1ccc2ncnc(Nc3ccc(Oc4ccc(C)nc4)c(C)c3)c2c1 [CP-724714]
% of control [4]: 100% | % of control [5]: 100%

CN(C(=O)c1cnn2cccnc12)c1cc2c(cc1N1CCOCC1)C(=O)N(C[C@@H](F)C(C)(C)O)C2
dTM [6]: -0.3 K

Cn1cc(-n2cnc3c(NCc4nc5cc(Cl)c(Cl)cc5[nH]4)nc(N4CCOCC4)nc32)cn1
% of control [7]: 4.18%

CC(=O)c1cc(-c2ccccc2OCC2CC2)c2ncccn12
% of control [8]: 91%

COc1cc(Nc2nc(C)cc(-c3cnn4nc(OC)ccc34)n2)cc(C(F)(F)F)c1
% of control [9]: 97%

CN(C)CC#Cc1ccc2[nH]c3c(c2c1)-c1nc(N)ncc1CCC3
% of control [10]: 4.5%

Cc1ccc(-c2ccc3c(ccc4sc5c(c43)NC[C@@H](C)NC5=O)n2)cn1
% of inhibition [11]: 77%

CCc1cc(Nc2nccc(-c3c(-c4ccc(OC)c(C(=O)Nc5c(F)cccc5F)c4)nc4ccccn34)n2)c(OC)cc1N1CCC(N2CCN(S(C)(=O)=O)CC2)CC1
% of inhibition [12]: 59%

CN1Cc2nccc(-c3cn(C)nc3-c3ccc(F)cc3)c2C1=O
% of inhibition [13]: -13%

O[C@H]1CC[C@H](Nc2ncc3nc(Nc4c(F)cc(F)cc4F)n([C@H]4CCOC4)c3n2)CC1
% of control [14]: 100% | % of control [15]: 100% | % of control [16]: 100% | % of control [17]: 100% | % of control [18]: 100% | % of control [19]: 100% | % of control [20]: 100% | % of control [21]: 100% | % of control [22]: 100%

CC[C@@H]1[C@H](F)C(=O)N[C@@H]1COc1nccc2cc(C(N)=O)c(OC)cc12 [ZIMLOVISERTIB]
% of inhibition [23]: -18.6%

CCN(CC)CCCCNc1ncc2cc(-c3cc(OC)cc(OC)c3)c(NC(=O)NC(C)(C)C)nc2n1
% of control [24]: 100%
